Data: patent publication US20120238603A1, “TREATMENT FOR INFLAMMATORY BOWEL DISEASE” (SANOFI, priority 2009, published 2012)
pKi: −log10 of the molar value. Where two headings read alike, the source gives them in different places.

What was measured:
mild to moderate UC = conditions: cited from earlier work
[1] = tested on: TNBS-induced ulcerative colitis; test: Murine TNBS-induced ulcerative colitis; type: in vivo, male balb/mice; conditions: for % protective effect vs. TNBS alone: Body wt d 4 (% Δ719-% ΔTNBS)/(% Δ Ctl-% ΔTNBS): oral once daily; for % protective effect vs. TNBS alone: Body wt d 4 (% Δ719-% ΔTNBS)/(% Δ Ctl-% ΔTNBS) / % protective effect vs. TNBS alone: Colon wt/length (TNBS-719)/(TNBS-ctl) / % protective effect vs. TNBS alone: Diarrhea / % protective effect vs. TNBS alone: Dilation / % protective effect vs. TNBS alone: MPO / % protective effect vs. TNBS alone: Macroscopic Score / % protective effect vs. TNBS alone: Tissue TNFα / % protective effect vs. TNBS alone: Ulceration: day 4
Protocol: The effect of the compound of Formula I in murine TNBS-induced ulcerative colitis. TNBS (Trinitro benzene sulfonic acid) is known to induce colitis in some strains of mice and rats by haptenating colonic proteins, resulting in an immune response. This model resembles multiple features, both histologic and immunologic, of human IBD (particularly Crohn's disease).
In some experiments, male balb/mice were pre-sensitized with 1% TNBS administered epicutaneously on day −7. On Day 0, TBNS (2.5 mg/100 mcl) in 35% ethanol or 100 mg/kg TNBS in 50% ethanol, was administered intrarectally, and colitis-relevant readouts were measured 4 days later. The compound of Formula I as hydrochloride salt or as fumarate salt was administered orally in 1% carboxymethylcellulose-Tween. Sulfazalazine was given at 100 mg/kg. Both compounds were given once daily.
• 0 No damage • 1 Hyperemia without ulcers • 2 Hyperemia and bowel wall thickening without ulcers • 3 One site of ulceration without bowel wall thickening • 4 Two or more sites of ulceration/inflammation • 5 0.5 cm inflammation and major damage • 6-10 1 cm or more of major damage (0.5 cm=1 point) • 0/1 Diarrhea +/− • 0/1/2 No dilatation/partial dilatation/dilatation in the whole length

human beta-tryptase = human beta-tryptase (Homo sapiens, UniProt P20231); test: Inhibition of recombinant human beta-tryptase (Ki); type: biochemical; conditions: recombinant enzyme
Sequence of human beta-tryptase (P20231 31-275): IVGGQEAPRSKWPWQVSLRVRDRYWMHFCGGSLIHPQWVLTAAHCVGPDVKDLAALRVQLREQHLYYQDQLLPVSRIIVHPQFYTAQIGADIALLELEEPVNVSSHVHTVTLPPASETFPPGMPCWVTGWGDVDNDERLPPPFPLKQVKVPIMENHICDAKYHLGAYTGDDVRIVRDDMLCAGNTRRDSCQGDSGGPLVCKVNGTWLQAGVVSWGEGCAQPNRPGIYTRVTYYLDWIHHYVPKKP

[2] = target: T1, mouse MCPT-6 (mouse orthologue of human beta-tryptase) (Mus musculus, UniProt P21845); test: Inhibition of recombinant mouse MCPT-6 (Ki); type: biochemical; conditions: recombinant enzyme
T1 sequence (P21845 32-276): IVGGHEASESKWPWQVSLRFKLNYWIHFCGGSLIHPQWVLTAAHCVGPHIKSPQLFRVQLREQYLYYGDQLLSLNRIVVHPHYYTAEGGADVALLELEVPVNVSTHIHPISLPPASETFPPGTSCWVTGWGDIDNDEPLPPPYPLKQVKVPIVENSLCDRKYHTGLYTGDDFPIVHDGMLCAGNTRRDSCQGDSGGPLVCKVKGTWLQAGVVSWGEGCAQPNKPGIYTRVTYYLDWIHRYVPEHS

TNBS-induced colitis = conditions: rat; intra-colonic injections of NM 10-9, 10-11 and 10-13 M daily for 6 days; compared with 5-ASA 25 mg/Kg; cited from earlier work
b-tryptase = b-tryptase (Homo sapiens, UniProt P20231); conditions: reported selective b-tryptase inhibitor at low doses; cited from earlier work
Sequence of b-tryptase (P20231 31-275): as the sequence (P20231 31-275) above

[3] = first Formula I / sulfazalazine column pair, sulfazalazine 100 mg/kg
[4] = second Formula I / sulfazalazine column pair, sulfazalazine 100 mg/kg

Structure (SMILES)	% protective effect vs. TNBS alone: Body wt d 4 (% Δ719-% ΔTNBS)/(% Δ Ctl-% ΔTNBS) [1, 3]	% protective effect vs. TNBS alone: Colon wt/length (TNBS-719)/(TNBS-ctl) [1, 3]	% protective effect vs. TNBS alone: Diarrhea [1, 3]	% protective effect vs. TNBS alone: Dilation [1, 3]	% protective effect vs. TNBS alone: MPO [1, 3]	% protective effect vs. TNBS alone: Macroscopic Score [1, 3]	% protective effect vs. TNBS alone: Tissue TNFα [1, 3]	% protective effect vs. TNBS alone: Ulceration [1, 3]	% protective effect vs. TNBS alone: Body wt d 4 (% Δ719-% ΔTNBS)/(% Δ Ctl-% ΔTNBS) [1, 4]	% protective effect vs. TNBS alone: Colon wt/length (TNBS-719)/(TNBS-ctl) [1, 4]	% protective effect vs. TNBS alone: Diarrhea [1, 4]	% protective effect vs. TNBS alone: Dilation [1, 4]	% protective effect vs. TNBS alone: MPO [1, 4]	% protective effect vs. TNBS alone: Macroscopic Score [1, 4]	% protective effect vs. TNBS alone: Ulceration [1, 4]	also measured
NC(N)=Nc1ccc(CN2CCN(C(=O)O[C@@H]3CO[C@H]4[C@@H]3OC[C@H]4OC(=O)N3CCN(Cc4ccc(N=C(N)N)cc4)CC3)CC2)cc1 [APC-2059]	–	–	–	–	–	–	–	–	–	–	–	–	–	–	–	safety and tolerability (mild to moderate UC; 20 mg, SC, BID for 28 days on background of oral 5-ASA): safe and well tolerated; patients meeting remission criteria (DAI=0) (mild to moderate UC; 20 mg, SC, BID, 28 days, 5/56): 9%; patients meeting primary EP as responded (DAI≦3) (mild to moderate UC; 20 mg, SC, BID, 28 days, 16/56): 29%; patients meeting improved criteria (DAI≦3 or decreased by 4 points from baseline) (mild to moderate UC; 20 mg, SC, BID, 28 days, 27/56): 49%; response rate, post hoc (mild to moderate UC; baseline DAI score 7-9, 6/33): 18%; response rate, post hoc (mild to moderate UC; baseline DAI scores 6-7, 10/22): 45%; response, post hoc (mild to moderate UC; one patient, baseline DAI=11): did not respond
O=C(O)c1cc(/N=N/c2ccc(S(=O)(=O)Nc3ccccn3)cc2)ccc1O [sulfazalazine, reference compound]	46%	29%	50%	33%	44%	51%	50%	53%	10%	23%	43%	8%	21%	14%	11%	–
COCCn1cc(C(=O)N2CCC(c3cc(CN)ccc3F)CC2)c2c(OC(F)(F)F)ccc(F)c21 [Formula I, [4-(5-Aminomethyl-2-fluorophenyl)piperidine-1-yl][7-fluoro-1-(2-methoxyethyl)-4-trifluoromethoxy-1H-indol-3-yl]methanone]	20%	41%	50%	55%	13%	51%	50%	50%	27%	23%	57%	33%	19%	30%	21%	% protective effect vs. TNBS alone: Colon wt/length (TNBS-719)/(TNBS-ctl) ([1]; Formula I 3 mpk): −10%; % protective effect vs. TNBS alone: Diarrhea ([1]; Formula I 3 mpk): 50%; % protective effect vs. TNBS alone: Dilation ([1]; Formula I 3 mpk): 25%; % protective effect vs. TNBS alone: MPO ([1]; Formula I 3 mpk): 0%; % protective effect vs. TNBS alone: Macroscopic Score ([1]; Formula I 3 mpk): 25%; % protective effect vs. TNBS alone: Ulceration ([1]; Formula I 3 mpk): 23%; % protective effect vs. TNBS alone: Colon wt/length (TNBS-719)/(TNBS-ctl) ([1]; Formula I 10 mpk): 16%; % protective effect vs. TNBS alone: Diarrhea ([1]; Formula I 10 mpk): 50%; % protective effect vs. TNBS alone: Dilation ([1]; Formula I 10 mpk): 38%; % protective effect vs. TNBS alone: MPO ([1]; Formula I 10 mpk): 0%; % protective effect vs. TNBS alone: Macroscopic Score ([1]; Formula I 10 mpk): 27%; % protective effect vs. TNBS alone: Ulceration ([1]; Formula I 10 mpk): 25%; decrease of macroscopic damage ([1]; doses ranging from 3-30 mg/kg, oral, once daily, hydrochloride or fumarate salt): 20-50%; protective effects in multiple aspects of experimental colitis ([1]; oral, once daily, versus sulfazalazine positive control): compared well with the sulfazalazine positive control; pKi (human beta-tryptase): 7.42; pKi [2]: 6.04
N=C(N)c1ccc2cc(OC(=O)c3ccc(N=C(N)N)cc3)ccc2c1 [Nafamostat mesilate]	–	–	–	–	–	–	–	–	–	–	–	–	–	–	–	colonic mucosal inflammation (TNBS-induced colitis): significantly attenuated; pKi (b-tryptase): 10.02
